Paper PMC8033486 (Frontiers in Pharmacology, 2021)
Where a name gives a salt, the structure may show the parent alone. Read-outs that look alike come from different tables or passages of the source. *1 amine or outer side, *2 acyl side, *3 side chain or, on linkers, in order; H or OH if unused. Where a SMILES comes first, the peptide text is derived from it. Bridges are numbered along the chain shown (N, C = ends). [ ]: non-standard residue; d: D form. The star is where a group is joined. X1 = CC[C@H](C)[C@@H](N[*:1])[C@@H](O)CC(=O)O[C@H](C(=O)[C@H](C)C(=O)[*:2])C(C)C; NMeY = CN[C@@H](Cc1ccc(O)cc1)C(=O)O; dNMeL = CN[C@H](CC(C)C)C(=O)O; Pyruvoyl = CC(=O)C(=O)*; Cbz = O=C(OCc1ccccc1)*

Tests used:
[1] = test system: SARS-CoV-2; assay: microbe, parasite or virus in culture; type: cell-based; conditions: for Inhibition of SARS-CoV-2-induced cytopathic effect, result in words: Vero E6
[2] = in vitro; conditions: African green monkey
[3] = CC50, Vero E6, no virus, 3 days
[4] = Vero E6, cytopathic effect 3 days after infection, repeated experiments
[5] = Severe acute respiratory syndrome coronavirus 2, Vero C1008, 72 h, Vero E6, cytopathic effect 3 days after infection, repeated experiments, read-out: IC50 (Mean +/- SD)
[6] = Severe acute respiratory syndrome coronavirus 2, Vero C1008, Vero E6, one representative experiment with two replicates, when combined, each drug at the same concentration, read-out: IC50 value of the particular graph
[7] = Vero E6, cytopathic effect 3 days after infection, repeated experiments, read-out: IC50 (Mean +/- SD)
[8] = Severe acute respiratory syndrome coronavirus 2, Vero C1008, 72 h, read-out: IC50 (Mean +/- SD)

Compound: CC(=O)N[C@H]1C([C@H](O)[C@H](O)CO)O[C@@](O[C@@H]2C(O)[C@H](O[C@@H]3C(CO)OC(O)C(O)[C@H]3O)OC(CO)[C@@H]2O)(C(=O)[O-])C[C@H]1O.[Na+] (stereo partly shown) [3’ Sialyllactose Na Salt]
- Inhibition of SARS-CoV-2-induced cytopathic effect, result in words [1]: not able to reduce viral-induced cytopathic effect

Compound: NC12CC3CC(CC(C3)C1)C2 [Amantadine]
- CC50 at 3 days [2, 3]: > 100 µM
- Inhibition of SARS-CoV-2-induced cytopathic effect, result in words [1]: only a partial inhibition at 100 μM

Compound: CC(C)CN(C[C@@H](O)[C@H](Cc1ccccc1)NC(=O)O[C@H]1CCOC1)S(=O)(=O)c1ccc(N)cc1 [Amprenavir]
- CC50 at 3 days ([2]; CC50): > 100 µM
- Inhibition of SARS-CoV-2-induced cytopathic effect, result in words [1]: exhibited activity at the non-toxic concentration of 100 µM

Compound: CC[C@H]1OC(=O)[C@H](C)[C@@H](O[C@H]2C[C@@](C)(OC)[C@@H](O)[C@H](C)O2)[C@H](C)[C@@H](O[C@@H]2O[C@H](C)C[C@H](N(C)C)[C@H]2O)[C@](C)(O)C[C@@H](C)CN(C)[C@H](C)[C@@H](O)[C@]1(C)O [Azithromycin]
- CC50 at 3 days [2, 3]: > 100 µM

Compound: CCS(=O)(=O)N1CC(CC#N)(n2cc(-c3ncnc4[nH]ccc34)cn2)C1 [Baricitinib]
- CC50 [2]: > 85 µM

Compound: CC(C)(C)NC(=O)N[C@H](C(=O)N1C[C@H]2[C@@H]([C@H]1C(=O)NC(CC1CCC1)C(=O)C(N)=O)C2(C)C)C(C)(C)C (stereo partly shown) [Boceprevir]
- CC50 at 3 days ([2]; CC50): > 100 µM

Compound: CN(C)CCCN1c2ccccc2Sc2ccc(Cl)cc21 [Chlorpromazine]
- CC50 at 3 days [2, 3]: > 18 µM
- Inhibition of SARS-CoV-2-induced cytopathic effect, result in words [1]: we did not find any prominent effect

Compound: COc1cc2c(c(OC)c1OC)-c1ccc(OC)c(=O)cc1[C@@H](NC(C)=O)CC2 [Colchicine]
- CC50 [2]: 0.63 µM

Compound: CC(C)CN(C[C@@H](O)[C@H](Cc1ccccc1)NC(=O)O[C@H]1CO[C@H]2OCC[C@H]21)S(=O)(=O)c1ccc(N)cc1 [Darunavir]
- IC50 (Mean +/- SD) [1]: partially active at 100

Compound: O=C(O)c1nn(Cc2ccc(Cl)cc2Cl)c2ccccc12 [Diclondazolic acid (Lonidamine), Diclondazolic acid]
- IC50 (Mean +/- SD) [1]: Not Active

Compound: C[C@H]1c2cccc(O)c2C(=O)C2=C(O)[C@]3(O)C(=O)C(C(N)=O)=C(O)[C@@H](N(C)C)[C@@H]3[C@@H](O)[C@@H]21 [Doxycycline]
- CC50 at 3 days [2, 3]: > 100 µM

Compound: Nc1nc(=O)n([C@@H]2CS[C@H](CO)O2)cc1F [Emtricitabine]
- CC50 at 3 days [2, 3]: > 100 µM
- Inhibition of SARS-CoV-2-induced cytopathic effect, result in words [1]: failed to show any antiviral effect
- IC50 (Mean +/- SD) [1, 4]: Not Active

Compound: CN(C)[C@@H]1C(O)=C(C(N)=O)C(=O)[C@@]2(O)C(O)=C3C(=O)c4c(O)c(NC(=O)CN5CCCC5)cc(F)c4C[C@H]3C[C@@H]12 [Eravacycline]
- CC50 at 3 days [2, 3]: > 4 µM

Compound: NC(N)=Nc1nc(CSCCC(N)=NS(N)(=O)=O)cs1 [Famotidine]
- CC50 at 3 days [2, 3]: > 100 µM
- IC50 (Mean +/- SD) [1, 4]: Not Active

Compound: NC(=O)c1nc(F)c[nH]c1=O [Favipiravir]
- CC50 at 3 days ([2]; CC50): > 100 µM
- Inhibition of SARS-CoV-2-induced cytopathic effect, result in words [1]: only partial inhibitory activity at the non-toxic concentration of 100 µM

Compound: OC(Cn1cncn1)(Cn1cncn1)c1ccc(F)cc1F [Fluconazol]
- CC50 at 3 days [2, 3]: > 100 µM

Compound: CC(C)CN(C[C@@H](OP(=O)(O)O)[C@H](Cc1ccccc1)NC(=O)O[C@H]1CCOC1)S(=O)(=O)c1ccc(N)cc1 [Fosamprenavir Calcium]
- CC50 at 3 days [2, 3]: > 25 µM

Compound: Nc1ncnc2c([C@@H]3N[C@H](CO)[C@@H](O)[C@H]3O)c[nH]c12 [Galdesivir]
- IC50 (Mean +/- SD) [1]: Not Active
- Inhibition of SARS-CoV-2-induced cytopathic effect, result in words [1]: no antiviral effect

Compound: CCN(CCO)CCCC(C)Nc1ccnc2cc(Cl)ccc12 (stereo not shown) [Hydroxychloroquine]
- CC50 at 3 days [2, 3]: > 80 µM
- IC50 [1, 5]: 9.3 ± 11.1 µM
- IC50 [1, 6]: 2.1 µM
- Inhibition of SARS-CoV-2-induced cytopathic effect, result in words [1]: able to inhibit viral-induced cytopathic effects at concentrations where no cytotoxic effects of the drug were observed

Compound: CCC(C)n1ncn(-c2ccc(N3CCN(c4ccc(OCC5COC(Cn6cncn6)(c6ccc(Cl)cc6Cl)O5)cc4)CC3)cc2)c1=O (stereo not shown) [Itraconazole]
- CC50 at 3 days [2, 3]: > 100 µM
- IC50 [1, 5]: 79.4 µM
- IC50 [1, 6]: 79.4 µM
- IC50 [1, 7]: 80 µM

Compound: Cc1cccc(C)c1OCC(=O)N[C@@H](Cc1ccccc1)[C@@H](O)C[C@H](Cc1ccccc1)NC(=O)[C@H](C(C)C)N1CCCNC1=O [Lopinavir]
- CC50 at 3 days [2, 3]: > 87 µM
- Inhibition of SARS-CoV-2-induced cytopathic effect, result in words [1]: inhibited SARS-CoV-2-induced cytopathic effect at the non-toxic concentration of 20 μM

Compound: CC(C)[C@H](NC(=O)OCc1ccccc1)C(=O)N[C@H](C=O)Cc1ccccc1 [MDL 28170] (Cbz-Val-Phe-aldehyde)
- CC50 [2]: > 87 µM
- IC50 [1, 8]: 0.14 µM
- IC50 ([1]; Severe acute respiratory syndrome coronavirus 2, Vero C1008, read-out: IC50 value of the particular graph, Vero E6, one representative experiment with two replicates, when combined, each drug at the same concentration): 0.2 µM
- Inhibition of SARS-CoV-2-induced cytopathic effect, result in words [1]: activity in the nanomolar range

Compound: OC(c1cc(C(F)(F)F)nc2c(C(F)(F)F)cccc12)C1CCCCN1 (stereo not shown) [Mefloquine hydrochloride]
- CC50 at 3 days [2, 3]: > 100 µM

Compound: CC1SCC(C(=O)NC(Cc2cnc[nH]2)C(=O)N2CCCC2C(N)=O)NC1=O.O=C(O)C(F)(F)F (stereo not shown) [Montirelin trifluoroacetate salt]
- IC50 (Mean +/- SD) [1]: Not Active

Compound: CCOC(=O)C1=C(CN2CCOCC2)NC(c2nccs2)=NC1c1ccc(F)cc1Br (stereo not shown) [Morphothiadine]
- IC50 (Mean +/- SD) [1]: Not Active

Compound: CC(=O)N[C@@H](CS)C(=O)O [N-Acetil cystein]
- IC50 (Mean +/- SD) [1]: Not Active

Compound: Cc1c(O)cccc1C(=O)N[C@@H](CSc1ccccc1)[C@H](O)CN1C[C@H]2CCCC[C@H]2C[C@H]1C(=O)NC(C)(C)C [Nelfinavir mesylate hydrate]
- CC50 at 3 days [2, 3]: > 25 µM
- IC50 [1, 5]: < 10 µM
- IC50 [1, 6]: 1.4 µM

Compound: O=C(Nc1ccc([N+](=O)[O-])cc1Cl)c1cc(Cl)ccc1O [Niclosamide]
- CC50 at 3 days [2, 3]: > 9 µM
- Inhibition of SARS-CoV-2-induced cytopathic effect, result in words [1]: failed to protected Vero E6 cells from SARS-CoV-2 induced cytopathic effect

Compound: CC(=O)c1c(C)c2cnc(Nc3ccc(N4CCNCC4)cn3)nc2n(C2CCCC2)c1=O [Palbociclib]
- CC50 at 3 days [2, 3]: 2.7 µM

Compound: CCOC(=O)Cn1cccc1-c1nc(-c2ccc(OC)cc2)c(-c2ccc(OC)cc2)s1 [Pamicogrel]
- CC50 at 3 days ([2]; CC50): 6.4 µM

Compound: N#Cc1ccccc1-c1cc(-c2ccccn2)cn(-c2ccccc2)c1=O [Perampanel]
- IC50 (Mean +/- SD) [1]: Not Active

Compound: CC[C@H](C)[C@H]1NC(=O)[C@@H](NC(=O)[C@@H](CC(C)C)N(C)C(=O)[C@@H]2CCCN2C(=O)C(C)=O)[C@@H](C)OC(=O)[C@H](Cc2ccc(OC)cc2)N(C)C(=O)[C@@H]2CCCN2C(=O)[C@H](CC(C)C)NC(=O)[C@@H](C)C(=O)[C@H](C(C)C)OC(=O)C[C@@H]1O [Plitidepsin] (Pyruvoyl-P[dNMeL]T[X1]LP[NMeY](Me); ester 3-C)
- CC50 [2]: > 0.1 µM
- IC50 [1, 8]: 0.06 µM
- IC50 [1, 6]: 0.05 µM
- Inhibition of SARS-CoV-2-induced cytopathic effect, result in words [1]: always in nM concentrations

Compound: CCN(CC)CCCC(C)Nc1c2ccc(Cl)cc2nc2ccc(OC)cc12 (stereo not shown) [Quinacrine dihydrochloride]
- CC50 at 3 days [2, 3]: > 6 µM

Compound: CCC(CC)COC(=O)[C@H](C)N[P@](=O)(OC[C@H]1O[C@@](C#N)(c2ccc3c(N)ncnn23)[C@H](O)[C@@H]1O)Oc1ccccc1 [Remdesivir]
- CC50 [2]: > 85 µM
- IC50 [1, 6]: 1.2 µM
- IC50 [1, 7]: < 10 µM

Compound: CN(C)C(=O)c1cc2cnc(Nc3ccc(N4CCNCC4)cn3)nc2n1C1CCCC1 [Ribociclib]
- CC50 at 3 days [2, 3]: > 20 µM
- IC50 (Mean +/- SD) [1]: Not Active

Compound: CC(C)(C)NC(=O)[C@@H]1C[C@@H]2CCCC[C@@H]2CN1C[C@@H](O)[C@H](Cc1ccccc1)NC(=O)[C@H](CC(N)=O)NC(=O)c1ccc2ccccc2n1 [Saquinavir]
- CC50 at 3 days [2, 3]: > 28 µM

Compound: COc1cc(C2Oc3cc([C@H]4Oc5cc(O)cc(O)c5C(=O)[C@@H]4O)ccc3OC2CO)ccc1O (stereo partly shown) [Silibinin]
- CC50 at 3 days [2, 3]: > 20 µM

Compound: CC(C)OC(=O)[C@H](C)N[P@](=O)(OC[C@H]1O[C@@H](n2ccc(=O)[nH]c2=O)[C@](C)(F)[C@@H]1O)Oc1ccccc1 [Sofosbuvir]
- CC50 [2]: > 100 µM
- IC50 (Mean +/- SD) [1]: Not Active

Compound: COc1c(O[C@@H]2O[C@H](CO)[C@@H](O)[C@H](O)[C@H]2O)cc2c(c1OC)-c1ccc(SC)c(=O)cc1[C@@H](NC(C)=O)CC2 [Thiocolchicoside]
- IC50 (Mean +/- SD) [1]: Not Active

Compound: COC[C@H]1C[C@@H](c2ncc(-c3ccc4c(c3)COc3cc5c(ccc6nc([C@@H]7CC[C@H](C)N7C(=O)[C@@H](NC(=O)OC)C(C)C)[nH]c65)cc3-4)[nH]2)N(C(=O)[C@H](NC(=O)OC)c2ccccc2)C1 [Velpatasvir]
- CC50 at 3 days ([2]; CC50): > 10 µM

Compound: Ivermectin
- IC50 (Mean +/- SD) [1]: Not Active

Compound: Laflunimus Sodium Salt
- IC50 (Mean +/- SD) [1]: Not Active

Compound: Methyl-ß-cyclodextrin
- IC50 (Mean +/- SD) [1]: active at 1000
- Inhibition of SARS-CoV-2-induced cytopathic effect, result in words [1]: abrogate SARS-CoV-2 induced cytopathic effect

Compound: interferon-γ [IFN stimulated antivirus proteins; granulomatous disease]
- Inhibition of SARS-CoV-2-induced cytopathic effect, result in words [1]: displayed antiviral activity
